The values below come from ChEMBL document CHEMBL1131293, “N-[omega-(Tetralin-1-yl)alkyl] derivatives of 3,3-dimethylpiperidine are highly potent and selective sigma1 or sigma2 ligands” (J Med Chem, 1998).

Experiment [1] has as its target Sigma non-opioid intracellular receptor 1 (Rattus norvegicus, UniProt Q9R0C9). Briefly: Evaluated for the binding affinity towards sigma 1 receptor by displacing the radioligand [3H]-SKF- 10047 in whole rat brain membrane. The class given is cell membranes.
In experiment [2] the target is Sigma non-opioid intracellular receptor 1 (Rattus norvegicus) (UniProt Q9R0C9). Briefly: IC50 ratio; sigma 1 to sigma 2. Particulars: Cavia porcellus.
Chain of Sigma non-opioid intracellular receptor 1 (Rattus norvegicus) (Q9R0C9 whole entry): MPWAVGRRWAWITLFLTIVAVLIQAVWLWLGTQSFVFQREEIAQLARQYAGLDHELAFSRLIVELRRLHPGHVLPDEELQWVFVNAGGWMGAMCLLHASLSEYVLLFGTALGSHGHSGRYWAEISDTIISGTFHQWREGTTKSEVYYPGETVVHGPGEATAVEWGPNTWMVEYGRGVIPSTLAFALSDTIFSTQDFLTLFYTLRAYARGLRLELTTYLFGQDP
A further experiment has as its target Sigma 2 receptor. Briefly: Evaluated for the binding affinity towards sigma 2 receptor by displacing the radioligand [3H]DTG in guinea-pig brain cortex. On the set-up: species or system Cavia porcellus.
Experiment [3] concerns the target Sigma non-opioid intracellular receptor 1 (Rattus norvegicus) (UniProt Q9R0C9). Briefly: IC50 ratio; sigma 2 to sigma 1. As to conditions: Cavia porcellus.

Chain of Sigma non-opioid intracellular receptor 1 (Q9R0C9 whole entry): as above

For the compound `CC1(C)CCCN(CCCCCc2ccccc2)C1`, the IC50 (usually the concentration needed to halve the response being measured) in experiment [1] turned out to be 5830 nM; on Sigma 2 receptor it was 10 nM. Also, the Ratio in experiment [2] was determined as 583.
With `COc1cccc2c1CCC2CCCCN1CCCC(C)(C)C1` (centres undefined), the IC50 in experiment [1] is 9.3 nM; on Sigma 2 receptor, 4.6 nM. Also, the Ratio in experiment [3] came to 0.5; in experiment [2] it was 2.
For the compound `COc1cccc2c1CCCC2CCCN1CCCC(C)(C)C1` (single isomer, unassigned; (+)) [listing 1 of 2 here], the IC50 in experiment [1] amounted to 0.089 nM; at Sigma 2 receptor, 119 nM.
`CC1(C)CCCN(CCCCCC2CCCc3ccccc32)C1` (centres undefined): the IC50 in experiment [1] was determined as 1520 nM; on Sigma 2 receptor it was 0.008 nM. Besides, the Ratio in experiment [2] was > 100000.
`CC1(C)CCCN(CCCC2CCCc3ccccc32)C1` (centres undefined): the figures for the IC50 (in experiment [1]; at Sigma 2 receptor) were 252 nM and 135 nM, respectively. Moreover, the Ratio in experiment [3] worked out at 0.5; in experiment [2] it was 2.
On to `COc1cccc2c1CCCC2CCCN1CCCC(C)(C)C1` (single isomer, unassigned; (+)) [listing 2 of 2 here], for which the Ratio in experiment [3] came out at 1340.
Turning to `CC1(C)CCCN(CCCC2CCc3ccccc32)C1` (centres undefined), the values for the IC50 (in experiment [1]; at Sigma 2 receptor) were 6.9 nM and 4.5 nM, respectively. For the same compound, the Ratio in experiment [3] was determined as 0.6; in experiment [2], 1.5.
As for `COc1cccc2c1CCCC2CCCN1CCCC(C)(C)C1` (stereo in doubt; (-)-22) [listing 1 of 2 here], the Ratio in experiment [3] came out at 131.
`COc1cccc2c1CCCC2CCCN1CCCC(C)(C)C1` (stereo in doubt; (-)-22) [listing 2 of 2 here]: the IC50 in experiment [1] amounted to 0.85 nM; on Sigma 2 receptor, 111 nM.
In the case of `COc1ccc2c(c1)C(CCCCN1CCCC(C)(C)C1)CCC2` (centres undefined), the IC50 came to 25.6 nM in experiment [1] and 0.44 nM on Sigma 2 receptor. The Ratio in experiment [2] was found to be 58.
Take `CC1(C)CCCN(CCC2CCCc3ccccc32)C1` (centres undefined): the IC50 in experiment [1] is > 10000 nM; at Sigma 2 receptor it was 1.1 nM. Further, in experiment [2], the Ratio is > 9090.
Consider `COc1ccc2c(c1)CCCC2CCCN1CCCC(C)(C)C1` (centres undefined), for which the results for the IC50 (in experiment [1]; on Sigma 2 receptor) were > 10000 nM and 88 nM, respectively. Further, the Ratio in experiment [2] was > 114.
For the compound `COc1ccc2c(c1)C(CCCN1CCCC(C)(C)C1)CCC2` (centres undefined), the IC50 in experiment [1] was found to be 22 nM; on Sigma 2 receptor it was 109 nM. Besides, the Ratio in experiment [3] is 5.
For `COc1cccc2c1CCCC2CCCN1CCCC(C)(C)C1` (racemic) [listing 1 of 2 here], the Ratio in experiment [3] came out at 287.
`CC1(C)CCCN(CCCC2=CCc3ccccc32)C1`: the IC50 in experiment [1] was determined as 0.99 nM; at Sigma 2 receptor, 1.09 nM. The Ratio in experiment [3] and in experiment [2] was 1 each time.
For the compound `COc1ccc2c(c1)CCCC2CCCCN1CCCC(C)(C)C1` (centres undefined), the IC50 was determined as 2150 nM in experiment [1] and 0.016 nM on Sigma 2 receptor. Moreover, the Ratio in experiment [2] is > 100000.
For `COc1cccc2c1CCCC2CCCCN1CCCC(C)(C)C1` (centres undefined), the IC50 was found to be 978 nM in experiment [1] and 129 nM on Sigma 2 receptor. For the same compound, the Ratio in experiment [2] was found to be 8.
Regarding `CC1(C)CCCN(CCCCC2CCCc3ccccc32)C1` (centres undefined), the IC50 worked out at 0.69 nM in experiment [1] and 5.5 nM at Sigma 2 receptor. In experiment [3], the Ratio was determined as 8.
Consider `COc1cccc2c1CCCC2CCCN1CCCC(C)(C)C1` (racemic) [listing 2 of 2 here], for which the IC50 in experiment [1] came to 0.48 nM; at Sigma 2 receptor, 138 nM.
On to `CC1(C)CCCN(CCCC2CCCc3c(O)cccc32)C1` (centres undefined), for which the IC50 in experiment [1] was 41 nM; at Sigma 2 receptor it was 100 nM. For the same compound, in experiment [3], the Ratio came out at 2.
Take `CC1(C)CCCN(CCCCC2=CCCc3ccccc32)C1`: the IC50 is 9450 nM in experiment [1] and 1.1 nM on Sigma 2 receptor. The Ratio in experiment [2] is 8590.
Consider `COc1ccc2c(c1)CCCC2CCCCCN1CCCC(C)(C)C1` (centres undefined), for which the IC50 came to 0.62 nM in experiment [1] and 0.03 nM at Sigma 2 receptor. Further, the Ratio in experiment [2] was 21.
Regarding `COc1ccc2c(c1)CCC2CCCN1CCCC(C)(C)C1` (centres undefined), the figures for the IC50 (in experiment [1]; on Sigma 2 receptor) were 4660 nM and 1.01 nM, respectively. In experiment [2], the Ratio was 4610.
